Reference: patent publication US20250170130A1, “MODULATORS OF MYC FAMILY PROTO-ONCOGENE PROTEIN” (Nalo Therapeutics, priority 2022, published 2025)
Where two headings read alike, the source gives them in different places.

How the values were obtained:
MycC = biological target: T1, MycC (Homo sapiens, UniProt P01106); assay: Degradation of MycC protein in L363 cells, JESS/Western blot of lysates; type: cell-based; details: L-363, 24 h; for Dmax at 1 µM: read-out: % Degradation of MycC (L-363) 24 h, 1 μM; for Dmax at 3 µM: read-out: % Degradation of MycC (L-363) 24 h, 3 μM; for Dmax at 6 µM: read-out: % Degradation of MycC (L-363) 24 h, 6 μM; for Dmax at 0.5 µM: read-out: % Degradation of MycC (L-363) 24 h, 0.5 μM
T1 construct: endogenous in cells; host or cells: L363
T1 sequence (P01106 whole entry): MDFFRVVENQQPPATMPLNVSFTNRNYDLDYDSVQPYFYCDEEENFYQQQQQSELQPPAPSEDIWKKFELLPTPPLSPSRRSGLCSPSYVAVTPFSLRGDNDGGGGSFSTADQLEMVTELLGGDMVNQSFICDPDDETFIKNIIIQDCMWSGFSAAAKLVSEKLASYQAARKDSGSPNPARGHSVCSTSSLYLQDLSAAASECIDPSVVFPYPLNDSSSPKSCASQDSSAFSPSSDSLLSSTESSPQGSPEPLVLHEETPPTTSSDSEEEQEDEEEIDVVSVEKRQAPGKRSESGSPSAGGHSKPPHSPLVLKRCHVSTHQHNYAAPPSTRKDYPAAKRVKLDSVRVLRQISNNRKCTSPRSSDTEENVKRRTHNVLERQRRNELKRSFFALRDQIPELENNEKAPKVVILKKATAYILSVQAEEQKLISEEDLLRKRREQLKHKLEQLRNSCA
Procedure, shortened: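 L363 suspension cells were seeded at 1E6 cells per well and exposed to compound (stock 10 mM in DMSO) for 24 hrs. Cells were collected, spun down, rinsed with PBS, lysed in RIPA buffer cocktail on ice, clarified and kept at −80 degrees. Lysate protein was quantified by BCA, and c-myc was measured on JESS by chemiluminescence with tubulin and GAPDH loading controls in the NIR channel.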

MycN = biological target: T2, MycN (Homo sapiens, UniProt P04198); assay: Degradation of MycN protein in SK-N-BE(2) cells, JESS/Western blot of lysates; type: cell-based; details: SKNBE2, 24 h; for Dmax at 0.5 µM: read-out: % Degradation of MycN (SKNBE2) 24 h, 0.5 μM; for Dmax at 1 µM: read-out: % Degradation of MycN (SKNBE2) 24 h, 1 μM; for Dmax at 3 µM: read-out: % Degradation of MycN (SKNBE2) 24 h, 3 μM; for Dmax at 6 µM: read-out: % Degradation of MycN (SKNBE2) 24 h, 6 μM
T2 construct: endogenous in cells; host or cells: SK-N-BE(2)
T2 sequence (P04198 1-464): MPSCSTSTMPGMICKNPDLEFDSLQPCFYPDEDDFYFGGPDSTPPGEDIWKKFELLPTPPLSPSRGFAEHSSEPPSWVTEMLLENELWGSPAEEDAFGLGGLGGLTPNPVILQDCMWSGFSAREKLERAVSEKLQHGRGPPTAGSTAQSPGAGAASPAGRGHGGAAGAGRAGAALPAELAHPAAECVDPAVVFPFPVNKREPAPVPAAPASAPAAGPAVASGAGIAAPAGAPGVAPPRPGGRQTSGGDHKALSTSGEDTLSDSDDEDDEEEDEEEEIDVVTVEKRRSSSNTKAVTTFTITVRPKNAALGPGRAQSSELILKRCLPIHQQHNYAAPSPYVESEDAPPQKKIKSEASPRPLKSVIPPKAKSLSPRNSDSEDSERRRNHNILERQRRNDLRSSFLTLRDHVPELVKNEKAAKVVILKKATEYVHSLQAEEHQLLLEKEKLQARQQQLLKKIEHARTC
Procedure, shortened: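 SK-N-BE(2) adherent cells (5E5 per well of a 6 well dish) were grown 24 hrs, then exposed to compounds diluted 1 in 20 in media, with DMSO controls, for 24 hrs. Cells were scraped, pelleted, PBS washed and lysed in RIPA buffer cocktail; after BCA protein quantitation, n-myc was detected by chemiluminescence on JESS/Western blot with tubulin and GAPDH loading controls read in the near infra red channel.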

| Structure (SMILES) | Dmax at 1 µM (MycC; L-363 cells, 24 h, 1 μM) [%] | Dmax at 3 µM (MycC; L-363 cells, 24 h, 3 μM) [%] | Dmax at 0.5 µM (MycN; SKNBE2 cells, 24 h, 0.5 μM) [%] | Dmax at 1 µM (MycN; SKNBE2 cells, 24 h, 1 μM) [%] | Dmax at 3 µM (MycN; SKNBE2 cells, 24 h, 3 μM) [%] | Dmax at 6 µM (MycN; SKNBE2 cells, 24 h, 6 μM) [%] | Dmax at 1 µM (MycC) [%] | Dmax at 3 µM (MycC) [%] | Dmax at 6 µM (MycC) [%] | Dmax at 0.5 µM (MycN) [%] | Dmax at 1 µM (MycN) [%] | Dmax at 3 µM (MycN) [%] | Dmax at 6 µM (MycN) [%] | Dmax at 0.5 µM (MycC; L-363 cells, 24 h) [%] | Dmax at 6 µM (MycC; L-363 cells, 24 h, 6 μM) [%] |
| --- | --- | --- | --- | --- | --- | --- | --- | --- | --- | --- | --- | --- | --- | --- | --- |
| CNC[C@@H]1CN(c2nccc(Nc3cc(C4CCCC4)[nH]n3)n2)CCO1 [Compound 118, N-(5-Cyclopentyl-1H-pyrazol-3-yl)-2-[(2R)-2-(methylaminomethyl)morpholin-4-yl]pyrimidin-4-amine] | < 20 | < 20 | < 20 | 20 to 49 | < 20 | 80 to 100 |  |  |  |  |  |  |  |  |  |
| N#CC1(CN)CCCN(c2nccc(Nc3cc(C4CC4)[nH]n3)n2)C1 (stereo not drawn) [Compound 119, 3-(Aminomethyl)-1-[4-[(5-cyclopropyl-1H-pyrazol-3-yl)amino]pyrimidin-2-yl]piperidine-3-carbonitrile] |  |  |  |  |  |  | 50 to 79 | 80 to 100 | 80 to 100 | 50 to 79 | 50 to 79 | 80 to 100 | 80 to 100 |  |  |
| NCC1CN(c2nccc(Nc3cc(C4CC4)[nH]n3)n2)CC(F)(F)C1 (stereo not drawn) [Compound 121, 2-[5-(Aminomethyl)-3,3-difluoro-1-piperidyl]-N-(5-cyclopropyl-1H-pyrazol-3-yl)pyrimidin-4-amine] |  |  |  |  |  |  | 80 to 100 | 80 to 100 | 80 to 100 | 50 to 79 | 50 to 79 | 80 to 100 | 80 to 100 |  |  |
| NC[C@@H]1CN(c2nccc(Nc3cc(C4CC4)[nH]n3)n2)C[C@@H]1F [Compound 122-1, 2-[(3R,4R)-3-(Aminomethyl)-4-fluoro-pyrrolidin-1-yl]-N-(5-cyclopropyl-1H-pyrazol-3-yl)pyrimidin-4-amine] | 50 to 79 | 80 to 100 | 20 to 49 | 20 to 49 | 20 to 49 | 80 to 100 |  |  |  |  |  |  |  | 20 to 49 | 80 to 100 |
| NC[C@H]1CN(c2nccc(Nc3cc(C4CC4)[nH]n3)n2)C[C@H]1F [Compound 122-2, 2-[(3S,4S)-3-(Aminomethyl)-4-fluoro-pyrrolidin-1-yl]-N-(5-cyclopropyl-1H-pyrazol-3-yl)pyrimidin-4-amine] | 50 to 79 | 80 to 100 |  | < 20 | 50 to 79 | 80 to 100 |  |  |  |  |  |  |  | 20 to 49 | 80 to 100 |
| NC[C@@H]1CN(c2nccc(Nc3cc(C4CCCC4)[nH]n3)n2)C[C@@H]1F [Compound 123-1, 2-[(3R,4R)-3-(Aminomethyl)-4-fluoro-pyrrolidin-1-yl]-N-(5-cyclopentyl-1H-pyrazol-3-yl)pyrimidin-4-amine] | 20 to 49 | 80 to 100 |  | < 20 | 50 to 79 | 80 to 100 |  |  |  |  |  |  |  | < 20 | 80 to 100 |
| NC[C@H]1CN(c2nccc(Nc3cc(C4CCCC4)[nH]n3)n2)C[C@H]1F [Compound 123-2, 2-[(3S,4S)-3-(Aminomethyl)-4-fluoro-pyrrolidin-1-yl]-N-(5-cyclopentyl-1H-pyrazol-3-yl)pyrimidin-4-amine] | 50 to 79 | 80 to 100 | 20 to 49 | 20 to 49 | 50 to 79 | 80 to 100 |  |  |  |  |  |  |  | 20 to 49 | 80 to 100 |
| NCC1CN(c2nccc(Nc3cc(C4CC4)[nH]n3)n2)CC1(F)F (stereo not drawn) [Compound 124, 2-[4-(Aminomethyl)-3,3-difluoro-pyrrolidin-1-yl]-N-(5-cyclopropyl-1H-pyrazol-3-yl)pyrimidin-4-amine] | < 20 |  | 20 to 49 | 20 to 49 | 20 to 49 | 80 to 100 |  |  |  |  |  |  |  |  | 80 to 100 |
| NCC1CN(c2nccc(Nc3cc(C4CCCC4)[nH]n3)n2)CC1(F)F (stereo not drawn) [Compound 125, 2-[4-(Aminomethyl)-3,3-difluoro-pyrrolidin-1-yl]-N-(5-cyclopentyl-1H-pyrazol-3-yl)pyrimidin-4-amine] | 20 to 49 |  | 20 to 49 | 20 to 49 | 50 to 79 | 80 to 100 |  |  |  |  |  |  |  | 20 to 49 | 80 to 100 |
